The text below walks through data of US11111237B2, “Bicyclic compound and use thereof” (SK BIOPHARMACEUTICALS CO., LTD., priority 2019, dated 2021).

Test [1] deals with PRMT5-MEP50 enzyme complex (Homo sapiens (Human), UniProt O14744). In words: PRMT5 enzyme activity in vitro assay (methylation of histone H4R3, ELISA absorbance at 450 nm). In kind it is biochemical. As to conditions: SAM, histone H4 peptide, room temperature 2 hours, 8 points from 10 μM to 0.128 nM. The method, boiled down: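 Human PRMT5-MEP50 was prepared at 5 μg/mL with SAM at 2 μM and reacted 2 h at room temperature on plate-coated histone H4 (1-20) peptide. An 8-point 1:5 compound series ran from 10 μM to 0.128 nM. H4R3 methylation was detected by antibody/HRP ELISA at 450 nm to give IC50.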
PRMT5-MEP50 enzyme complex, sequence (O14744 2-637): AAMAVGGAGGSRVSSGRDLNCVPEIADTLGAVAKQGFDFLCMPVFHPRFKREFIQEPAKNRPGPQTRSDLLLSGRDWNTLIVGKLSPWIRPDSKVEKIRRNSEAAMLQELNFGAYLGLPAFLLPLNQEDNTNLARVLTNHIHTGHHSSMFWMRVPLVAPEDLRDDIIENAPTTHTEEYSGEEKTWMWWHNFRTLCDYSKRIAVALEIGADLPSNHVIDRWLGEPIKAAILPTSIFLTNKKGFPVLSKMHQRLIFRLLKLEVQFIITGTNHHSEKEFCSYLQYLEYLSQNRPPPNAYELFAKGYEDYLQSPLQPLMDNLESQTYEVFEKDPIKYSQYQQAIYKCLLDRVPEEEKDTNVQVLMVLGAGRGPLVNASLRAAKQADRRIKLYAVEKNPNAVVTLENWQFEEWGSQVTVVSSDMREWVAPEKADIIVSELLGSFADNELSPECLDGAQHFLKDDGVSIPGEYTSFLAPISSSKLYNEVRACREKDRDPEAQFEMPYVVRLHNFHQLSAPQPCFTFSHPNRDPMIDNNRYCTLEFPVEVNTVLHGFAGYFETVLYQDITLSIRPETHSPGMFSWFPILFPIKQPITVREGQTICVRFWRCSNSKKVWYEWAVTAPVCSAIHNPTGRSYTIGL
PRMT5-MEP50 enzyme complex, sequence (Q9BQA1 2-342 partner): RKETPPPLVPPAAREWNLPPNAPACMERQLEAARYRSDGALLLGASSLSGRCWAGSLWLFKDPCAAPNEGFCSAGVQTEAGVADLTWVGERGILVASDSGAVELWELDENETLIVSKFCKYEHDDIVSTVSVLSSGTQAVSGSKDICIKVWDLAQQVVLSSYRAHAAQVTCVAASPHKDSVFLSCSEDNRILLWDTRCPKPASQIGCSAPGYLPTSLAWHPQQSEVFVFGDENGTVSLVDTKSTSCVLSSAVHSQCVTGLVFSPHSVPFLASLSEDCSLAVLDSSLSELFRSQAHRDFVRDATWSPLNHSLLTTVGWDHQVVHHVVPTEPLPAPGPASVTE

The test system of test [2] is SDMA levels in the tumor (U87MG tumor cells implanted subcutaneously). The experiment in a line: Test for in vivo target inhibitory activity (SDMA levels in U87MG tumor). Conditions: U87MG tumor in nude mice, oral 25 or 50 mg/kg 1-2 times daily for one week. The procedure:
Test for in vivo target inhibitory activity
After U87MG tumor cells were implanted subcutaneously in nude mice, a PRMT5 inhibitor was administered orally (25 or 50 mg/kg) 1-2 times daily for one week, and then the degree to which SDMA levels in the tumor decreased was measured.
Reagents: Bradford's solution (Catalog No. 500-0006) was purchased from Bio-rad (USA). SDMA antibody (Catalog No. 13222s) was purchased from Cell Signaling Technology (USA). SmD3 antibody (Catalog No. ap12451a) was purchased from Abgent (USA), and secondary antibody (Catalog No. ab6721) and TMB substrate (Catalog No. ab210902) were purchased from Abcam (UK).
Experimental procedure: The tumor tissues transplanted into the mice were excised, the cells were lysed, and then quantified with Bradford's solution. 5-10 μg of protein per sample was diluted with carbonate-bicarbonate buffer and dispensed into a 96-well plate and reacted at room temperature for 2 hours. After washing with phosphate buffered saline (PBST) containing 0.05% Tween-20 3 times, 200 μL of PBST containing 5% bovine serum albumin (BSA-PBST) was added and reacted at room temperature for 2 hours. After washing with PBST 3 times, the SDMA antibody and the SmD3 antibody were diluted in BSA-PBST, and 100 μL of each was dispensed onto the plate and reacted at 4° C. overnight. After washing with PBST 3 times the next day, 100 μL of the secondary antibody diluted in BSA-PBST was added and reacted at room temperature for 1 hour. After washing with PBST 3 times, 100 μL of TMB substrate was added and reacted at room temperature for 10-20 minutes, and 100 μL of 1N sulfuric acid solution was added to terminate the reaction. Then, the absorbance at 450 nm was measured to calculate the degree of SDMA inhibition by the compound. (+++: more than 70%, ++: more than 30% and 70% or less, +: 30% or less)

As for `O=C1c2ccc(OC3CCN(C4COC4)CC3)cc2OCCN1C[C@H](O)CN1CCc2ccccc2C1` [Example 92, 4-[(2R)-3-(3,4-dihydro-1H-isoquinolin-2-yl)-2-hydroxy-propyl]-8-[[1-(oxetan-3-yl)-4-piperidyl]oxy]-2,3-dihydro-1,4-benzoxazepin-5-one], the IC50 in test [1] lay in the range of 100 to 1000 nM. Also, the “SDMA inhibition (%)” value in test [2] was “+++ (+++: more than 70%)”.

For the molecule `CN1CCC(Oc2ccc3c(c2)OC(C)(C)CN(C[C@H](O)CN2CCc4ccccc4C2)C3=O)CC1` [Example 112, 4-[(2R)-3-(3,4-dihydro-1H-isoquinolin-2-yl)-2-hydroxy-propyl]-2,2-dimethyl-8-[(1-methyl-4-piperidyl)oxy]-3H-1,4-benzoxazepin-5-one], the IC50 in test [1] was in the range of 100 to 1000 nM. For the same molecule, the “SDMA inhibition (%)” value in test [2] is listed as “+++ (+++: more than 70%)”.

For the molecule `O=C1c2ccc(Br)cc2CCCN1C[C@H](O)CN1CCc2ccccc2C1` [Example 155, 7-bromo-2-[(2R)-3-(3,4-dihydro-1H-isoquinolin-2-yl)-2-hydroxy-propyl]-4,5-dihydro-3H-2-benzazepin-1-one], the IC50 in test [1] lay within 1 to 100 nM. In addition, in test [2], the “SDMA inhibition (%)” value is reported as “+ (+: 30% or less)”.

In turn, `CN1CCN(C[C@H](O)CN2CCc3ccccc3C2)C(=O)c2ccc(Br)cc21` [Example 156, 8-bromo-4-[(2R)-3-(3,4-dihydro-1H-isoquinolin-2-yl)-2-hydroxy-propyl]-1-methyl-2,3-dihydro-1,4-benzodiazepin-5-one] displayed an IC50 in test [1] of 1 to 100 nM. In test [2], the “SDMA inhibition (%)” value was “++ (++: more than 30% and 70% or less)”.
